In patent publication US11447566B2, “Anti-tissue factor antibodies, antibody-drug conjugates, and related methods” (Iconic Therapeutics, Inc., priority 2018, dated 2022):
Square brackets hold non-standard residues; d marks the D form. Peptide text beside a SMILES is read from it. * marks the point of attachment. Dolaproine = CO[C@@H]([C@@H]1CCCN1)[C@@H](C)C(=O)O; Dil = CC[C@H](C)[C@H](NC)[C@@H](CC(=O)O)OC; X1 = C[C@@H](N*)[C@@H](O)c1ccccc1; NMeV = CN[C@H](C(=O)O)C(C)C

Assays:
[1] = system: human thrombin generation (relipidated TF, normal pooled plasma); assay: Thrombin generation assay (TGA); type: biochemical; conditions: 100 nM antibody, Example 18
Procedure: (§1) The TGA assay was performed using the calibrated-automated-thrombogram (CAT) instrument manufactured and distributed by STAGO. The test method design was equivalent to a standard CAT assay measurement, except that the plasma source was NPP in citrate/CTI. […] Relipidated TF was added to a 96-well assay plate, followed by addition of the antibody/NPP mixture. After a 10-min incubation or directly after combining the relipidated TF with antibody/NPP, thrombin generation was initiated by the addition of calcium and the thrombin substrate. The STAGO software was used to report the following parameters: Peak IIa (highest thrombin concentration generated [nM]); Lag Time (time to IIa generation [min]); ETP (endogenous thrombin potential, area under the curve [nM×min]); and ttPeak (time to Peak IIa [min]).
as §1, with “was normal pooled plasma (NPP)” for “was NPP”, “in citrate supplemented with corn trypsin inhibitor (citrate/CTI).” for “in citrate/CTI.”
TGA assay was performed using the calibrated-automated-thrombogram (CAT) instrument manufactured and distributed by STAGO (Diagnostica Stago SAS, Asnieres sur Seine, France). […] The anti-TF antibodies were titrated at 0, 10, 50 and 100 nM and mixed with NPP in citrate/CTI. Relipidated TF was added to a 96-well assay plate, followed by addition of the antibody/NPP mixture. After a 10-min incubation or directly after combining the relipidated TF with antibody/NPP, thrombin generation was initiated by the addition of calcium and the thrombin substrate. The STAGO software was used to report the following parameters: Peak IIa (highest thrombin concentration generated on the thrombin generation curve [nM]); Lag Time (time from assay start to the moment 10 nM of thrombin is formed [min]); ETP (endogenous thrombin potential, area under the curve [nM×min]); and ttPeak (time from assay start to Peak IIa [min]). […] As used herein, the term “thrombin generation assay” (TGA) refers to the TGA used in this example.

[2] = system: gastric adenocarcinoma PDX; assay: Gastric adenocarcinoma patient-derived xenograft model; type: in vivo, athymic nude mice; conditions: end of the study (day 46)
Procedure: TF-positive PDX models were performed in athymic nude mice (Envigo, Indianapolis, Ind.) to evaluate the efficacy of the ADCs in vivo. The animals' care was in accordance with institutional guidelines. Study animals were implanted unilaterally on the left flank with tumor fragments.
Animals were removed from study and euthanized once tumor size reached 1200 mm^3 or skin ulceration was evident. In addition, the MTV curve for the treatment group in question was no longer shown once an animal was removed from study due to size. TGI and statistical analyses were conducted in the same manner as for the CDX studies.

[3] = system: HUVECs; assay: G2/M arrest (phospho-Histone H3), HUVECs; type: cell-based, human; conditions: 24 h treatment, with or without inflammatory cytokines
Procedure: (§2) To further understand the resistance of endothelial cells to anti-TF ADCs, cell cycle progression was evaluated 24 h after addition of the cytokines and TF-specific ADCs. Arrest at the G2/M phase of the cell cycle was analyzed as previously described in Theunissen et al, Methods Enzymol, 2006, 409:251-284. Briefly, low-passage HUVECs (Lifeline Cell Technologies, Frederick, Md., USA), propagated in VascuLife VEGF-Mv Endothelial media (Lifeline Cell Technologies), and HCT-116 cells were seeded on 12-well plates. The next day, media was removed and replaced with fresh media (no cytokines) or media containing 5 ng/mL IL1-beta, 25 ng/mL TNF-alpha and 50 ng/mL VEGF (with cytokines). A titration of MMAE-linked ADCs or free MMAE was added to the cells. After 24 h of treatment, cells were fixed in ice-cold 70% ethanol. Subsequently, the cells were washed with flow cytometry buffer (PBS, 1% FBS, 0.1% Triton) and stained for 1 h with a 1:100 dilution of phospho-Histone H3 (Ser10) (D2C8 PE Conjugate, Cell Signaling Technology). After 2 washes, the cells were treated for 20 min with 100 μg/mL PureLink RNAse A (ThermoFisher Scientific), followed by the addition of the viability dye TO-PRO-3 Iodide (ThermoFisher Scientific). 40,000 events were collected on a Novocyte flow cytometer. In the Flowjo data analysis software cell doublets and aneuploid cells were excluded. […]

[4] = system: HCT-116 cells; assay: G2/M arrest (phospho-Histone H3), HCT-116 cells; type: cell-based, human; conditions: 24 h treatment
Procedure: as §2

## 10H10: previously described TF-specific antibody (Versteeg et al., 2008; Teplyakov et al., 2017) [reference compound]
[1]; 10 min antibody pre-incubation
  reduction of the peak IIa concentration: 48%
[1]; without antibody pre-incubation
  reduction of the peak IIa concentration: 34%

## TF-011 ADC
[2]
  complete responders: 1 animals
  tumor-free survivors: 5 animals

## CC[C@H](C)[C@@H]([C@@H](CC(=O)N1CCC[C@H]1[C@H](OC)[C@@H](C)C(=O)N[C@H](C)[C@@H](O)c1ccccc1)OC)N(C)C(=O)[C@@H](NC(=O)[C@@H](NC)C(C)C)C(C)C [MMAE, monomethyl auristatin E] (H-[NMeV]V[Dil][Dolaproine]-X1)
[3]
  G2/M arrest, pH3-positive HUVECs: increase the phosphorylation of histone H3 to a similar extent
[4]
  G2/M arrest, pH3-positive HCT-116 cells: increase the phosphorylation of histone H3 to a similar extent
